Here are results for 25 compounds from patent US9115127B2 (AMGEN INC., priority 2010, dated 2015).

pIC50: −log10 of the molar value. Counter-ions that a name gives are not always drawn.

The target of this assay is T1, wild-type human ALK (cytoplasmic domain, amino acids 1058-1620, N-terminal GST fusion) (Homo sapiens, UniProt Q9UM73).
T1 construct: The cytoplasmic domain (amino acids 1058-1620) of wild-type human ALK; GST (N); made in house; host or cells: SF9 insect cells
T1 sequence (Q9UM73 1058-1620): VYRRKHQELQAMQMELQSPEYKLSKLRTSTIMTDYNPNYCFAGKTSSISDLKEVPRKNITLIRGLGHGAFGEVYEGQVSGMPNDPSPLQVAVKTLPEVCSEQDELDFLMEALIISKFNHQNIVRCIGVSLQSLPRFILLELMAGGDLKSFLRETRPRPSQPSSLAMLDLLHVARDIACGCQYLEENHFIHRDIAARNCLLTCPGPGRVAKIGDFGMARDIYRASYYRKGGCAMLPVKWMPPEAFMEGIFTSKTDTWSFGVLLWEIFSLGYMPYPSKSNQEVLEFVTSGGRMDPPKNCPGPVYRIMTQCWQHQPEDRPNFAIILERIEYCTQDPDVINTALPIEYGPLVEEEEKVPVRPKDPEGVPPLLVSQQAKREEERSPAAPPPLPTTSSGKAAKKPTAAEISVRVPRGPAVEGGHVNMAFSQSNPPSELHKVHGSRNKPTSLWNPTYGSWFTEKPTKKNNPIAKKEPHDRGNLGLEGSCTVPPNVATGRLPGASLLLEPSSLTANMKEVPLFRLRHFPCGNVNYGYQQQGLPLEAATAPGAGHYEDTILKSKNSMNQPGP
The assay can be described thus: ALK Inhibition in Enzyme Assay (Lance TR-FRET kinase assay). The assay is classed as biochemical. Put shortly: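 TR-FRET read-out (Eu-W1024 PT66 anti-phosphotyrosine plus streptavidin-allophycocyanin, 320 nm excitation) quantified biotinylated peptide phosphorylation by the purified kinase. Reaction ran 90 minutes at room temperature before quenching with 20 mM EDTA in Tris pH 7.5 buffer with NaCl, BSA and Tween-20.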
Compound `NC(=O)[C@H]1CC[C@@H](n2/c(=N/C(=O)c3ccc(F)cc3)[nH]c3cnc(OCCN4CCCCC4)cc32)CC1` [Example 135, (E)-N-(1-(cis-4-Carbamoylcyclohexyl)-6-(2-(piperidin-1-yl)ethoxy)-1H-imidazo[4,5-c]pyridin-2(3H)-ylidene)-4-fluorobenzamide] gave a pIC50 of over 7.30.

With `CC(C)NC(=O)[C@H]1CC[C@@H](n2c(N)nc3ccc(CN4CCC(C(C)(C)O)CC4)cc32)CC1` [Example 136, cis-4-(2-Amino-6-((4-(2-hydroxypropan-2-yl)piperidin-1-yl)methyl)-1H-benzo[d]imidazol-1-yl)-N-isopropylcyclohexanecarboxamide], the pIC50 is 5.30 to 6.00.

Take `CC(C)NC(=O)[C@H]1CC[C@@H](n2/c(=N/C(=O)c3cccc(C(F)(F)F)c3)[nH]c3ccc(CN4CCC(C(C)(C)O)CC4)cc32)CC1` [Example 147, (E)-N-(6-((4-(2-Hydroxypropan-2-yl)piperidin-1-yl)methyl)-1-(cis-4-(isopropylcarbamoyl)cyclohexyl)-1H-benzo[d]imidazol-2(3H)-ylidene)-3-(trifluoromethyl)benzamide]: the negative-log IC50 (pIC50) is over 7.30. `CC(C)NC(=O)[C@H]1CC[C@@H](n2/c(=N/C(=O)c3ccc(F)c(C(F)(F)F)c3)[nH]c3ccc(CN4CCC(C(C)(C)O)CC4)cc32)CC1` [Example 148, (E)-4-Fluoro-N-(6-((4-(2-hydroxypropan-2-yl)piperidin-1-yl)methyl)-1-(cis-4-(isopropylcarbamoyl)cyclohexyl)-1H-benzo[d]imidazol-2(3H)-ylidene)-3-(trifluoromethyl)benzamide]: the pIC50 was over 7.30. In turn, `COc1ccc(C(=O)/N=c2\[nH]c3ccc(CN4CCC(C(C)(C)O)CC4)cc3n2[C@H]2CC[C@@H](C(=O)NC(C)C)CC2)cc1` [Example 151, (E)-N-(6-((4-(2-Hydroxypropan-2-yl)piperidin-1-yl)methyl)-1-(cis-4-(isopropylcarbamoyl)cyclohexyl)-1H-benzo[d]imidazol-2(3H)-ylidene)-4-methoxybenzamide] had a pIC50 of over 7.30. `COc1ccc(COc2ccc3nc(NC(=O)c4ccc(F)cc4)n([C@H]4CC[C@@H](C(=O)NC(C)C)CC4)c3c2)cc1` [Example 153, 4-Fluoro-N-(6-((4-methoxybenzyl)oxy)-1-(cis-4-((1-methylethyl)carbamoyl)cyclohexyl)-1H-benzimidazol-2-yl)benzamide] showed a pIC50 of over 7.30.

`CC(C)NC(=O)[C@H]1CC[C@@H](n2/c(=N/C(=O)c3ccc(F)cc3)[nH]c3ccc(O)cc32)CC1` [Example 154, 4-Fluoro-N-(6-hydroxy-1-(cis-4-(isopropylcarbamoyl)cyclohexyl)-1H-benzo[d]imidazol-2-yl)benzamide] had a pIC50 of over 7.30. In the case of `CC(C)NC(=O)[C@H]1CC[C@@H](n2/c(=N/C(=O)c3ccc(F)cc3)[nH]c3ccc(OCCN4CCCCC4)cc32)CC1` [Example 155, (E)-4-Fluoro-N-(1-(cis-4-(isopropylcarbamoyl)cyclohexyl)-6-(2-(piperidin-1-yl)ethoxy)-1H-benzo[d]imidazol-2(3H)-ylidene)benzamide] it was over 7.30; in that of `CC(C)NC(=O)[C@H]1CC[C@@H](n2/c(=N/C(=O)c3ccc(F)cc3)[nH]c3cnccc32)CC1` [Example 156, (E)-4-Fluoro-N-(1-(cis-4-(isopropylcarbamoyl)cyclohexyl)-1H-imidazo[4,5-c]pyridin-2(3H)-ylidene)benzamide], over 7.30; in that of `COc1cc2c(cn1)[nH]/c(=N\C(=O)c1ccc(F)cc1)n2[C@H]1CC[C@@H](C(=O)NC(C)C)CC1` [Example 157, (E)-4-Fluoro-N-(1-(cis-4-(isopropylcarbamoyl)cyclohexyl)-6-methoxy-1H-imidazo[4,5-c]pyridin-2(3H)-ylidene)benzamide], over 7.30.

The compound `COCCOc1cc2c(cn1)[nH]/c(=N\C(=O)c1ccc(F)cc1)n2[C@H]1CC[C@@H](C(=O)NC(C)C)CC1` [Example 159, (E)-4-Fluoro-N-(1-(cis-4-(isopropylcarbamoyl)cyclohexyl)-6-(2-methoxyethoxy)-1H-imidazo[4,5-c]pyridin-2(3H)-ylidene)benzamide] gave a negative-log IC50 (pIC50) of over 7.30. The same measure for `CC(C)NC(=O)[C@H]1CC[C@@H](n2/c(=N/C(=O)c3ccc(F)cc3)[nH]c3cnc(Cl)cc32)CC1` [Example 160, (E)-N-(6-Chloro-1-(cis-4-(isopropylcarbamoyl)cyclohexyl)-1H-imidazo[4,5-c]pyridin-2(3H)-ylidene)-4-fluorobenzamide]: over 7.30.

For `CC(C)NC(=O)[C@H]1CC[C@@H](n2/c(=N/C(=O)c3ccc(F)cc3)[nH]c3ccc(OCCN4CCOCC4)cc32)CC1` [Example 161, (E)-4-Fluoro-N-(1-(cis-4-(isopropylcarbamoyl)cyclohexyl)-6-(2-morpholinoethoxy)-1H-benzo[d]imidazol-2(3H)-ylidene)benzamide], the pIC50 was over 7.30. For the compound `CC(C)NC(=O)[C@H]1CC[C@@H](n2/c(=N/C(=O)c3ccc(F)cc3)[nH]c3cnc(O)cc32)CC1` [Example 162, (E)-4-Fluoro-N-(6-hydroxy-1-(cis-4-(isopropylcarbamoyl)cyclohexyl)-1H-imidazo[4,5-c]pyridin-2(3H)-ylidene)benzamide], the pIC50 is over 7.30.

As for `CC(C)NC(=O)[C@H]1CC[C@@H](n2/c(=N/C(=O)c3ccc(F)cc3)[nH]c3cnc(NCCN4CCOCC4)cc32)CC1` [Example 163, (E)-4-Fluoro-N-(1-(cis-4-(isopropylcarbamoyl)cyclohexyl)-6-(2-morpholinoethylamino)-1H-imidazo[4,5-c]pyridin-2(3H)-ylidene)benzamide], the negative-log IC50 (pIC50) was over 7.30. Compound `CC(C)NC(=O)[C@H]1CC[C@@H](n2/c(=N/C(=O)c3ccc(F)cc3)[nH]c3cnc(OCCn4cncn4)cc32)CC1` [Example 164, (E)-N-(6-(2-(1H-1,2,4-Triazol-1-yl)ethoxy)-1-(cis-4-(isopropylcarbamoyl)cyclohexyl)-1H-imidazo[4,5-c]pyridin-2(3H)-ylidene)-4-fluorobenzamide] showed a pIC50 of over 7.30. In turn, `CC(C)NC(=O)[C@H]1CC[C@@H](n2/c(=N/C(=O)c3ccc(F)cc3)[nH]c3cnc(OCCCN4CCOCC4)cc32)CC1` [Example 165, (E)-4-Fluoro-N-(1-(cis-4-(isopropylcarbamoyl)cyclohexyl)-6-(3-morpholinopropoxy)-1H-imidazo[4,5-c]pyridin-2(3H)-ylidene)benzamide] gave a pIC50 of over 7.30. `CC(C)NC(=O)[C@H]1CC[C@@H](n2/c(=N/C(=O)c3ccc(F)cc3)[nH]c3cc(F)c(OCCN4CCOCC4)cc32)CC1` [Example 166, (E)-4-Fluoro-N-(5-fluoro-1-(cis-4-(isopropylcarbamoyl)cyclohexyl)-6-(2-morpholinoethoxy)-1H-benzo[d]imidazol-2(3H)-ylidene)benzamide] had a negative logarithm of the IC50 (pIC50) of over 7.30. On to `CC(C)NC(=O)[C@H]1CC[C@@H](n2/c(=N/C(=O)c3ccc(F)cc3)[nH]c3cnc(OC4CCN(CC(=O)OC(C)(C)C)CC4)cc32)CC1` [Example 167, tert-Butyl 2-(4-((E)-2-(4-fluorobenzoylimino)-1-(cis-4-(isopropylcarbamoyl)cyclohexyl)-2,3-dihydro-1H-imidazo[4,5-c]pyridin-6-yloxy)piperidin-1-yl)acetate], for which the pIC50 was over 7.30. The same measure for `CC(C)NC(=O)[C@H]1CC[C@@H](n2/c(=N/C(=O)c3ccc(F)cc3)[nH]c3cnc(OC4CCN(CC(=O)O)CC4)cc32)CC1` [Example 168, 2-(4-((E)-2-(4-Fluorobenzoylimino)-1-(cis-4-(isopropylcarbamoyl)cyclohexyl)-2,3-dihydro-1H-imidazo[4,5-c]pyridin-6-yloxy)piperidin-1-yl)acetic acid hydrochloride]: over 7.30; for `CC(C)NC(=O)[C@H]1CC[C@@H](n2/c(=N/C(=O)c3ccc(F)cc3)[nH]c3cnc(OC4CCN(C)CC4)cc32)CC1` [Example 169, (E)-4-Fluoro-N-(1-(cis-4-(isopropylcarbamoyl)cyclohexyl)-6-(1-methylpiperidin-4-yloxy)-1H-imidazo[4,5-c]pyridin-2(3H)-ylidene)benzamide]: over 7.30. The compound `CC(C)NC(=O)[C@H]1CC[C@@H](n2/c(=N/C(=O)c3ccc(F)cc3)[nH]c3ccc(CO)cc32)CC1` [Example 170, (E)-4-Fluoro-N-(6-(hydroxymethyl)-1-(cis-4-(isopropylcarbamoyl)cyclohexyl)-1H-benzo[d]imidazol-2(3H)-ylidene)benzamide] showed a pIC50 of over 7.30. As to `CC(C)NC(=O)[C@H]1CC[C@@H](n2/c(=N/C(=O)c3ccc(F)cc3)[nH]c3ccc(CN4CCN(S(C)(=O)=O)CC4)cc32)CC1` [Example 172, (E)-4-Fluoro-N-(1-(cis-4-(isopropylcarbamoyl)cyclohexyl)-6-((4-(methylsulfonyl)piperazin-1-yl)methyl)-1H-benzo[d]imidazol-2(3H)-ylidene)benzamide], the pIC50 was over 7.30. With `CC(C)NC(=O)[C@H]1CC[C@@H](n2/c(=N/C(=O)c3ccc(F)cc3)[nH]c3ccc(CN4CCN(CCO)CC4)cc32)CC1` [Example 173, (E)-4-Fluoro-N-(6-((4-(2-hydroxyethyl)piperazin-1-yl)methyl)-1-(cis-4-(isopropylcarbamoyl)cyclohexyl)-1H-benzo[d]imidazol-2(3H)-ylidene)benzamide], the pIC50 was over 7.30. The compound `CC(C)NC(=O)[C@H]1CC[C@@H](n2/c(=N/C(=O)c3ccc(F)cc3)[nH]c3ccc(CN4CCCC(C(N)=O)C4)cc32)CC1` (stereo partly drawn) [Example 180, 1-(((E)-2-(4-Fluorobenzoylimino)-3-(cis-4-(isopropylcarbamoyl)-cyclohexyl)-2,3-dihydro-1H-benzo[d]imidazol-5-yl)methyl)piperidine-3-carboxamide] had a pIC50 of over 7.30.
